Tests used:
[1] = system: patients with clinically-confirmed CIRS-WDB; test: Open-label VIP replacement trial: physician recorded symptoms; format: in vivo, human; conditions: for SX (symptoms) mean value: Control 2.9, Base 29.8, AC2 17.8
From the text: (§1) 3A. Treatment: Human research approval for this study was provided by Copernicus Group IRB, Cary, N.C. […] Further, certain patients were excluded from the trial for the following reason. […] Patients with these findings were excluded from the formal replacement trial.
(§2) All patients enrolled in the trial were confirmed to be exposed to WDB by observation of illness acquisition solely following water intrusion followed by either (1) visible microbial growth; (2) specification of molds by QPCR DNA testing; or (3) musty smells. All patients met the case criteria established by the GAO (US GAO 2008). Patients were known to the clinic with a 36-month mean duration of prior treatment following exposure to WDB.
(§3) For the experimental protocol, subjects self-administered 50 mcg VIP (Aviptadil; Bachem AG, Switzerland) four times a day via nasal aerosol and returned to the clinic to review symptoms and clinical course, and undergo interval physical exam and laboratory exam at scheduled intervals. Clinical data were collected before any treatments, or baseline (BASE); after all other treatments and before VIP (AC2); after 12 months of VIP (12M); and after 18 months of VIP (18M). Data collection included physician recorded symptoms in a medical history (Table 2); levels of VIP, MSH, C4a, TGF beta-1, VEGF, MMP9, estradiol, testosterone, 25-0H vitamin D, lipase, CBC and CMP. Measurement of CD4+CD25+T regulatory (Treg) cells was not available at BASE; Treg testing was performed at AC2 and 18 month time periods. Laboratory testing for all analytes was performed by high complexity CLIA-certified labs including LabCorp and Quest Diagnostics. All data were compared to either established normative values or values from prior testing of healthy control populations (N=850) performed at this clinic. Data were analyzed by two-sample T-tests for each of two study time points and one-sample T-tests that compared the specified data to the corresponding historical control values. A Bonferroni correction to the p-values was done to control the experiment-wise error rate. A p value of <0.001 was chosen as the determinant of significance for the study.

[2] = system: patients with clinically-confirmed CIRS-WDB; test: Open-label VIP replacement trial: laboratory parameters (CLIA labs); conditions: for Estra-M (estradiol in males) mean value: Control 23.1, Base 36, AC2 30.3; for VIP level mean value: Control 28.9, Base 9.3, AC2 14.4; for Estra-F (estradiol in females) mean value: Control 29.8, Base 28, AC2 26.6; for Lipase mean value: Control 30.1, Base 24.2, AC2 30.8; for MSH mean value: Control 37.2, Base 9.4, AC2 16.8; for VIT D (25-OH vitamin D) mean value: Control 38.4, Base 19.4, AC2 24.1; for VEGF mean value: Control 65, Base 61, AC2 95.3; for Test-F (testosterone in females) mean value: Control 282, Base 20, AC2 18.9; for MMP-9 mean value: Control 332, Base 628, AC2 358; for Test-M (testosterone in males) mean value: Control 415, Base 298.8, AC2 293.5; for TGF (TGF beta-1) mean value: Control 2380, Base 12579, AC2 13015; for C4a mean value: Control 2830, Base 8346, AC2 4662
From the text: as §1, §2, §3

[3] = system: patients with clinically-confirmed CIRS-WDB; test: Stress echocardiography, pulmonary artery systolic pressure (PASP) in exercise; format: in vivo, human; conditions: all subjects, within two months; entry criterion rise exceeding 8 mm Hg versus resting PASP
From the text: Entry criteria also included a rise in pulmonary artery systolic pressure (PASP) in exercise as measured by stress echocardiography that exceeded 8 mm Hg as compared to resting PASP. Standard Bruce protocols were employed during stress echocardiography testing. […] All patients achieved target heart rate; none developed ischemic changes on EKG or chest pain during stress testing.

CD4+CD25+ Treg cells = test: Flow cytometry of CD4+CD25+ T regulatory (Treg) cells; format: in vivo, human; conditions: 18 month versus AC2, increase from a mean of 8.9
From the text: CD4^+ CD25^+ Treg cells in CIRS patients can be measured by flow cytometry. CD4^+ CD25^+ Treg cells mature in response to an inflammatory stimulation, and in particular, in response to increasing levels of TGF-β1. Matured CD4^+ CD25^+ Treg cells migrate to tissues to suppress inflammation and autoimmunity. However, if there is a pre-existing inflammatory response ongoing in tissues, CD4^+ CD25^+ Treg cells may turn into autoreactive T cells. Therefore, the determination of CD4^+ CD25^+ Treg cells in blood as well as in tissues may be helpful in assessing the status of inflammation in CIRS patients.

[4] = system: patients with clinically-confirmed CIRS-WDB; test: Open-label VIP replacement trial: safety and tolerability
From the text: as §3

human volunteers = test: Initial use of low dose VIP by nasal instillation (earlier trials)
From the text: as §1

[5] = initial use of low dose VIP by nasal instillation

CC[C@H](C)[C@H](NC(=O)[C@H](CO)NC(=O)[C@H](CC(N)=O)NC(=O)[C@H](CC(C)C)NC(=O)[C@H](Cc1ccc(O)cc1)NC(=O)[C@H](CCCCN)NC(=O)[C@H](CCCCN)NC(=O)[C@@H](NC(=O)[C@H](C)NC(=O)[C@H](CCSC)NC(=O)[C@H](CCC(N)=O)NC(=O)[C@H](CCCCN)NC(=O)[C@H](CCCNC(=N)N)NC(=O)[C@H](CC(C)C)NC(=O)[C@H](CCCNC(=N)N)NC(=O)[C@@H](NC(=O)[C@H](Cc1ccc(O)cc1)NC(=O)[C@H](CC(N)=O)NC(=O)[C@H](CC(=O)O)NC(=O)[C@@H](NC(=O)[C@H](Cc1ccccc1)NC(=O)[C@@H](NC(=O)[C@H](C)NC(=O)[C@H](CC(=O)O)NC(=O)[C@H](CO)NC(=O)[C@@H](N)Cc1c[nH]cn1)C(C)C)[C@@H](C)O)[C@@H](C)O)C(C)C)C(=O)N[C@@H](CC(C)C)C(=O)N[C@@H](CC(N)=O)C(N)=O [VIP, Aviptadil]
Quality of life ([1]; 20 patients, open-label trial): enhanced quality of life
SX (symptoms) mean value ([1]; after 12 months of VIP, 50 mcg four times a day nasal aerosol): 5.5
SX (symptoms) mean value ([1]; after 18 months of VIP): 3.4
Symptom reduction versus controls ([1]; all treated patients): Symptom reduction to equal those of controls
Inflammatory parameters versus controls ([2]; VIP nasal spray, open-label trial): not significantly different from controls
Estra-M (estradiol in males) mean value ([2]; after 12 months of VIP): 27.7
VIP level mean value ([2]; after 12 months of VIP): 12.3
Estra-F (estradiol in females) mean value ([2]; after 12 months of VIP): 27.8
Lipase mean value ([2]; after 12 months of VIP): 30.7
MSH mean value ([2]; after 12 months of VIP): 17.3
VIT D (25-OH vitamin D) mean value ([2]; after 12 months of VIP): 38.3
VEGF mean value ([2]; after 12 months of VIP): 73.4
Test-F (testosterone in females) mean value ([2]; after 12 months of VIP): 22.6
MMP-9 mean value ([2]; after 12 months of VIP): 302
Test-M (testosterone in males) mean value ([2]; after 12 months of VIP): 546.7
TGF (TGF beta-1) mean value ([2]; after 12 months of VIP): 5359
C4a mean value ([2]; after 12 months of VIP): 5679
Estra-M (estradiol in males) mean value ([2]; after 18 months of VIP): 22.8
VIP level mean value ([2]; after 18 months of VIP): 16.6
Estra-F (estradiol in females) mean value ([2]; after 18 months of VIP): 28.9
Lipase mean value ([2]; after 18 months of VIP): 27.9
MSH mean value ([2]; after 18 months of VIP): 18.2
VIT D (25-OH vitamin D) mean value ([2]; after 18 months of VIP): 39.3
VEGF mean value ([2]; after 18 months of VIP): 66.2
Test-F (testosterone in females) mean value ([2]; after 18 months of VIP): 25.2
MMP-9 mean value ([2]; after 18 months of VIP): 290
Test-M (testosterone in males) mean value ([2]; after 18 months of VIP): 511.5
TGF (TGF beta-1) mean value ([2]; after 18 months of VIP): 4040
C4a mean value ([2]; after 18 months of VIP): 3306
Patient values versus controls by the end of the trial (symptoms, MSH, VIP, MMP9, C4a, TGF-β1, 25-OH Vitamin D, testosterone in males) ([2]; end of the trial, baseline differed from controls at p<0.01): not statistically different from controls, except for VIP and MSH
Elevated PASP in stress exercise testing reduced to [3]: < 8 mm Hg
CD4+CD25+ Treg cells, mean (CD4+CD25+ Treg cells): 22.5
Tolerability ([4]; 18 month study, 20 patients, nasal aerosol): tolerated the drug well
Changes in CBC and CMP ([4]; during the trial): No changes
Dropouts due to adverse effects ([4]; over the course of the 18 month study): no dropouts due to adverse effects
Elevated lipase, cases ([4]; resolved without cessation of use of VIP): One patient had a transient elevated level of lipase without abdominal pain
Lipase levels during the trial ([4]; whole cohort): did not rise
Safety of low dose VIP by nasal instillation (human volunteers; human volunteers, initial use): shown to be safe
Effect on pulmonary artery responses to exercise (human volunteers; [5]): blunted accentuated pulmonary artery responses to exercise
Effect on symptoms (human volunteers; [5]): prompt reduction in symptoms

From patent US9770170B2, “Methods for diagnosing, treating, and monitoring chronic inflammatory response syndrome” (priority 2012, dated 2017)
